Source: article PMC7125190, “Native/citrullinated LL37-specific T-cells help autoantibody production in Systemic Lupus Erythematosus” (Scientific Reports, 2020)
Non-standard residues stand in square brackets, D forms with d. Residues, ends and D or L forms follow the SMILES beside them. No end group written: not given here. Cit = NC(=O)NCCC[C@H](N)C(=O)O

Experiments:
HLA-DR15 (DRB1*1501) = target: T1, HLA-DR15 (DRB1*1501) (Homo sapiens, UniProt P01903+P01911); assay: HLA-DR folding assay (LOCI/AlphaScreen) peptide binding; conditions: axis "Peptide (nM)", LOCI, 48 h at 18 °C, L243 acceptor beads, five-fold titrations, one representative experiment of two shown, read-out: average Ko
T1 construct: made in house; host or cells: E. coli
Description: (§1) Human recombinant HLADRA1*01:01, HLA-DRB1*01:01, and HLA-DRB1*15:01 were expressed in E. coli and purified in a series of liquid chromatography based steps[71].
(§2) We performed peptide-MHC binding assays by two different protocols by ImmunAware, Denmark and Benaroya Institute (USA). In the first protocol, binding was measured using a Luminescent Oxygen Channelling Immunoassay (LOCI), marketed by Perkin Elmer as AlphaScreen[72]. This is a nonradioactive bead-based homogenous proximity assay, where the donor beads containing a photosensitizer compound upon excitation with light at a 680 nm wavelength, converts ambient oxygen to energy-rich, short-lived singlet oxygen; that is transferred to a acceptor beads in close proximity only. The acceptor beads can respond to singlet oxygen with a luminescence/ fluorescence cascade leading to an amplified signal in the 520–620 nm range. As one tag binding to the donor beads: a biotin group engineered unto the HLA β chain. As the other tag binding to the acceptor beads: conformation-dependent HLA class II specific antibody (L243). Thus, only when a fully folded complex is present will the donor and acceptor beads come in sufficient close proximity and give a measurable signal. Biotinylated recombinant HLA class II molecules were diluted from an 8 M urea buffer into a folding buffer (PBS, 20% glycerol, Protease inhibitor mix) with peptide concentrations ranging from 0.13 nM to 10,000 nM. The analysed peptides were tested in 5-to-8 five-fold concentration titrations spanning from 20 μM to 0.3 nM. The reaction mixtures were incubated for 48 h at 18 °C to allow for peptide-HLA complex formation reaching steady state. After incubation, 15 μL of the folding mixture was transferred to a 384-well Optiplate (PerkinElmer) followed by addition of 15 μL of a solution containing L243 acceptor beads and streptavidin donor beads (final concentration of beads was 5 μL/mL). The plates were incubated over night at 18 °C, and then measured in enVisionTM, Perkin Elmer. Assay signals measured in […] were plotted against the offered peptide concentrations, and analyzed by non-linear regression using GraphPad Prism. […]
(§3) Figure S7. […] (A,B) Binding of LL37-peptides to HLA-DR1 (DRB1*0101) and to HLA-DR15 (DRB1*1501) was evaluated by a HLA-DR folding assays and detected by Luminescent Oxygen Channelling Immunoassay (LOCI) described in MM. […] (C-F) Binding to DR16 (DRB1*1601), DRB5 (HLA-DRB5*0101), DR4 (HLA-DRB1*0401) and DR10 (DRB1*1001) was evaluated by peptide competitionassay as in MM, and evaluated fluorimetrically. […]

HLA-DR1 (DRB1*0101) = target: T2, HLA-DR1 (DRB1*0101) (Homo sapiens, UniProt P01903+P01911, A100R/D57E/F55L/F60I/F76Y/I96L/L162R/M171V/P40L/Q125E/R42F/V115G/Y59C); assay: as above; conditions: axis "Peptide (nM)", LOCI, 48 h at 18 °C, L243 acceptor beads, five-fold titrations, one representative experiment of two shown, read-out: average Ko
T2 construct: made in house; host or cells: E. coli
Description: as §1, §2, §3

[1] = system: SLE/CLE CD4+ T-cell clones; assay: T-cell clone reactivity (BrdU, HLA-matched B-LCLs pulsed with peptide); assay type: cell-based, human; conditions: clones from one SLE and one CLE patient
Description: PBMCs were purified, from EDTA-treated blood, on Ficoll-Hypaque (Pharmacia Fine Chemicals, Uppsala, Sweden) were incubated (10^5 cells/well) in 96-well-flat-bottom-microplates (BD) in T cell-medium (RPMI 1640, 10% heat-inactivated human serum, HS, Gibco), 2 mM L-glutamine, 10 U/mL penicillin, and 100 μg/mL streptomycin), with/without peptides. We performed assays on fresh cells, within 1-to-3 hours from collection, or on PBMCs frozen in 90% FCS-10%DMSO, whose viability we assessed by Trypan blue exclusion, at inverted microscope. Recovery of live cells was between 65 and 85 % of the frozen number. At day3 and 5, BrdU was added (1 μg/mL). BrdU-incorporation was detected by APC-labeled anti-BrdU antibody (BD Pharmingen), after surface staining by flow cytometry. Internal control for T-cell viability and proliferation was PHA treatment (2 μg/mL). SI for proliferation was calculated by dividing percent of BrdU-staining in the presence of each peptide used to stimulate cells by percent of BrdU-staining in the absence of peptide stimulation. SI for proliferation was considered positive when>3. This cut-off was obtained by calculating the mean+2DS [1.5 + 2 (0.6)] (of the stimulation indexes calculated as above) of the proliferation of HD. […]
Assays were repeated twice with each patient. […] Ror-ɣt and Bcl-6 were measured by intracellular staining and flow cytometry, after 48 hours culture with LL37 or control antigen, and were analyzed on CD38highCD4 T-cells. […]
PBMCs were stimulated (2x10^6 cells/mL) with LL37 for 7 days and re-stimulated (10 days) with LL37-pulsed (10 µg/mL) autologous-ɣ-irradiated-(30Gy)-PBMCs in T-cell medium in the presence of human/recombinant (hr)IL-2 (Boehringer-Mannheim, Indian, USA). T cell lines-specificity was analyzed by using peptide-pulsed (0.1-10 µg/mL) autologous-irradiated PBMCs (30Gy) or lymphoblastoid-cell-lines (B-LCLs) (150Gy, 33). […]
analyzed by flow-cytometry (after staining by BrdU-detection kit, BD Pharmingen). […] Clones reactivity and HLA-restriction were analyzed using HLA-matched-homozigous B-LCLs, pulsed with […]

CD3+CD4+ T-cells = assay: T-cell proliferation assay (BrdU incorporation of PBMC); assay type: cell-based, human; conditions: SLE/CLE PBMC, day 6, BrdU
Description: PBMCs were purified, from EDTA-treated blood, on Ficoll-Hypaque (Pharmacia Fine Chemicals, Uppsala, Sweden) were incubated (10^5 cells/well) in 96-well-flat-bottom-microplates (BD) in T cell- […]
penicillin, and 100 μg/mL streptomycin), with/without peptides. We performed assays on fresh cells, within 1-to-3 hours from collection, or on PBMCs frozen in 90% FCS-10%DMSO, whose viability we assessed by Trypan blue exclusion, at inverted microscope.
At day3 and 5, BrdU was added (1 μg/mL). BrdU-incorporation was detected by APC-labeled anti-BrdU antibody (BD Pharmingen), after surface staining by flow cytometry. Internal control for T-cell viability and proliferation was PHA treatment (2 μg/mL). SI for proliferation was calculated by dividing percent of BrdU-staining in the presence of each peptide used to stimulate cells by percent of BrdU-staining in the absence of peptide stimulation. SI for proliferation was considered positive when>3. This cut-off was obtained by calculating the mean+2DS [1.5 + 2 (0.6)] (of the stimulation indexes calculated as above) of the proliferation of HD.
Basal % of proliferation was set using, as reference, an isotype matched antibody staining (APC- […]
Assays were repeated twice with each patient. In rare cases in which background proliferation exceed antigen-specific proliferation the assay was repeated three times. Concomitant phenotype analysis of LL37-responder T-cells included staining for CD4, CD8, CXCR5, PD1, ICOS, CCR6. […]

[2] = system: serum antibodies (anti-native LL37/anti-cit-LL37); assay: ELISA for autoantibody detection in sera; assay type: binding, human; conditions: for Antibody response to control peptides in SLE: SLE sera, ELISA OD
Description: Anti-native/cit-LL37, other antigen antibodies (anti-DNA and anti-RNA), and total anti-human IgG were measured by ELISA as described. Briefly, 96-well flat-bottom plates (Non-Binding surface polystyrene, Corning, USA) are coated with 2 μg/mL of native LL37/cit-LL37 or control proteins or human DNA or human RNA[9] or anti-human IgG antibody (Sigma) in carbonate buffer (0.1 M NaHCHO3, pH 9) for 2 hours (or over night) and washed four times with PBS 0.1% Tween-20. This washing buffer was used for washing at all steps. The blocking buffer containing 2% bovine serum albumin (BSA, Sigma) in PBS was used for at least 1 hour (or over night) to saturate unspecific binding sites. After washing, sera were diluted at various concentrations (usually 1:100 or 1:200) in PBS 2% BSA (cell culture supernatants were diluted 1:2, 1:4 or 1:10) followed by 1 hour incubation with a horseradish peroxidase–conjugated (HRP) goat anti-human IgG (Sigma-Aldrich), diluted 1:10,000 in PBS. The color was developed for 5 minutes with 3,3’,5,5’-tetramethylbenzidine (TMB) substrate (Sigma-Aldrich). The reaction was stopped by adding 50 μl of 2 N H2SO4, and absorbance determined at 450 nm with a reference wavelength of 540 nm. Anti-dsDNA in sera of lupus patients were detected by the standard clinical test Kallestad Crithidia luciliae Complete Kits for detection and semi-quantitation of autoantibodies to native DNA (nDNA) antigens by indirect fluorescence antibody (IFA) procedure. ELISA for detection of anti-tetanus antibodies (anti-TT) was from Abnova (Taiwan).

DNA = conditions: cited from earlier work

## CC[C@H](C)[C@H](NC(=O)[C@H](CCCCN)NC(=O)[C@H](CCC(=O)O)NC(=O)[C@H](CCCCN)NC(=O)[C@H](CO)NC(=O)[C@H](CCCCN)NC(=O)[C@H](CCCNC(N)=O)NC(=O)[C@H](Cc1ccccc1)NC(=O)[C@H](Cc1ccccc1)NC(=O)[C@H](CC(=O)O)NC(=O)CNC(=O)[C@H](CC(C)C)NC(=O)[C@@H](N)CC(C)C)C(=O)NCC(=O)N[C@@H](CCCCN)C(=O)O [cit-P1] (H-LLGDFF[Cit]KSKEKIGK-OH)
HLA-DR15 (DRB1*1501)
  Kd: 3440 nM

## CC(C)C[C@H](NC(=O)[C@H](Cc1ccccc1)NC(=O)[C@H](CC(=O)O)NC(=O)[C@@H](N)CCCCN)C(=O)N[C@@H](CCCNC(N)=O)C(=O)N[C@@H](CC(N)=O)C(=O)N[C@@H](CC(C)C)C(=O)N[C@H](C(=O)N1CCC[C@H]1C(=O)N[C@@H](CCCNC(N)=O)C(=O)N[C@H](C(=O)N[C@@H](CCC(=O)O)C(=O)N[C@@H](CO)C(=O)O)[C@@H](C)O)C(C)C [cit-P7] (H-KDFL[Cit]NLVP[Cit]TES-OH)
HLA-DR1 (DRB1*0101)
  Kd: 305 nM

## CPKYVKQNTLKLATG [HA306–320, promiscuously presented peptide derived from the hemoagglutinin protein of Influenza A, reference compound]
[1]
  T-cell clone reactivity: did not cross-react

## GIINTLQKYYCRVRGGRCAVLSCLPKEEQIGKCSTRGRKCCRRKK [HBD3, control unrelated AMP human β-defensin-3, reference compound]
CD3+CD4+ T-cells
  T-cell response to control or short peptides: not significant

## KDFLRNLVPRTES [P7]
HLA-DR1 (DRB1*0101)
  Kd: 60 nM

## LLGDFFRKSKEKIGK [P1]
HLA-DR15 (DRB1*1501)
  Kd: 700 nM

## SETR(cit)PVLNR(cit)LFDKIR(cit)QVIR(cit)KEFEKGIKEKSKR(cit)FFDGLL [cit-REV, citrullinated REV peptide, reference compound]
[2]; RA sera, 14 of 70
  RA sera with antibody reactivity: 20%
[2]
  Antibody response to control peptides in SLE: negative

## SETRPVLNRLFDKIRQVIRKEFEKGIKEKSKRFFDGLL [REV, reference compound]
[2]
  Antibody response to control peptides in SLE: negative
CD3+CD4+ T-cells
  T-cell response to control or short peptides: did not elicit T-cell responses
DNA
  DNA-binding activity: retains DNA-binding activity
